By Kd is commonly meant the free concentration of one partner at which half of the binding sites on the other are occupied at equilibrium, for simple one-to-one binding. A word on the IC50: it is the concentration that gives 50% inhibition.

One test deals with DDR1 (Homo sapiens, UniProt Q08345).
In a further test the target is T1, TRKB (Homo sapiens, UniProt Q16620).
T1 construct: purchased DiscoveRx
Description: KINOMEscan binding constant, TRKB. To be noted: read-out: Binding affinity (Kd, nM) TRKB.

In the next test the target is T2, DDR2 (Homo sapiens, UniProt Q16832).
T2 sequence (Q16832 22-855): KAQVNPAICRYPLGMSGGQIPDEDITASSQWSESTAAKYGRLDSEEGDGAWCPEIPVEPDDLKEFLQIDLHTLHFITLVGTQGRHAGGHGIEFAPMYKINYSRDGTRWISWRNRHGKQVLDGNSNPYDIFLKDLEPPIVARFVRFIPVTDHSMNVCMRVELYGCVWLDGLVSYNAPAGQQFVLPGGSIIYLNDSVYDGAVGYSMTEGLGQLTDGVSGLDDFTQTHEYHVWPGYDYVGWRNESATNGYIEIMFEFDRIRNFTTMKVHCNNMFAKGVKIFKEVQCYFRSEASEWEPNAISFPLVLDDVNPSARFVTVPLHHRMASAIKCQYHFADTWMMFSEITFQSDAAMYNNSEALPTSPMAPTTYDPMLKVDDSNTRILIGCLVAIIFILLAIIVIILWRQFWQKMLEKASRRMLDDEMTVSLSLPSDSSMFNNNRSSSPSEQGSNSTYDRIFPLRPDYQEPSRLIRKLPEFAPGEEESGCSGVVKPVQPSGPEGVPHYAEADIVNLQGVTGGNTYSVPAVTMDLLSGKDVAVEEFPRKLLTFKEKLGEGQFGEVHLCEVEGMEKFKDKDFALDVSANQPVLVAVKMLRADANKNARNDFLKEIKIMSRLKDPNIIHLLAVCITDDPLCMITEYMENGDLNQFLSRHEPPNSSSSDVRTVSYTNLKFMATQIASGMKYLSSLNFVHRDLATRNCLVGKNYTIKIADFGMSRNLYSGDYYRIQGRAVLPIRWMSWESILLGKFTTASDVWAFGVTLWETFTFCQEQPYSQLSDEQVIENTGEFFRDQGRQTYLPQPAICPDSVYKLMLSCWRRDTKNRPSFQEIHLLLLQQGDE
Nature of the test: LANCE ULTRA kinase assay, DDR2. The class given is biochemical. Background: TR-FRET usually uses a lanthanide donor and a delayed reading to cut background.

Chain of DDR1 (Q08345 19-913): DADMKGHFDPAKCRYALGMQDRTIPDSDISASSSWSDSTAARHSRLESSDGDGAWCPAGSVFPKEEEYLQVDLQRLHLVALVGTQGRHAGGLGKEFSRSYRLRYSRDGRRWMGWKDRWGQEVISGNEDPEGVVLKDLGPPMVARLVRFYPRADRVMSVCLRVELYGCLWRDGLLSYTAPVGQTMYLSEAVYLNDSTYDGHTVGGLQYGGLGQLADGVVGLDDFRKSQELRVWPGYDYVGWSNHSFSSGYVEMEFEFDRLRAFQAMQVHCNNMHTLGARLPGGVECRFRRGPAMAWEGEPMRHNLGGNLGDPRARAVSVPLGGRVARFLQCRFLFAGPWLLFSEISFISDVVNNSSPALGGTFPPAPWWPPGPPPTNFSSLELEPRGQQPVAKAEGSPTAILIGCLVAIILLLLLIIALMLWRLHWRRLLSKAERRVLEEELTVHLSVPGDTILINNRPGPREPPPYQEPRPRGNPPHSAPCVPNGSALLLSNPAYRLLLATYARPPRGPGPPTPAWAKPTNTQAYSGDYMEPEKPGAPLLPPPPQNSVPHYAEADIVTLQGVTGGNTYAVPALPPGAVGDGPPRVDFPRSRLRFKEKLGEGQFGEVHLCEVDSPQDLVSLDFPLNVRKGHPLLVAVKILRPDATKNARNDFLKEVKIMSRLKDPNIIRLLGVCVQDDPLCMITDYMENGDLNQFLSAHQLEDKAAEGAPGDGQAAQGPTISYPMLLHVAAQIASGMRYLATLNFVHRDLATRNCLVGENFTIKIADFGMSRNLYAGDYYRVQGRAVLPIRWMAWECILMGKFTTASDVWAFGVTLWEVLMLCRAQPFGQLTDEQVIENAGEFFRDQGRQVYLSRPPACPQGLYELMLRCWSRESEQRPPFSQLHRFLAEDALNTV
T1 sequence (Q16620 32-822): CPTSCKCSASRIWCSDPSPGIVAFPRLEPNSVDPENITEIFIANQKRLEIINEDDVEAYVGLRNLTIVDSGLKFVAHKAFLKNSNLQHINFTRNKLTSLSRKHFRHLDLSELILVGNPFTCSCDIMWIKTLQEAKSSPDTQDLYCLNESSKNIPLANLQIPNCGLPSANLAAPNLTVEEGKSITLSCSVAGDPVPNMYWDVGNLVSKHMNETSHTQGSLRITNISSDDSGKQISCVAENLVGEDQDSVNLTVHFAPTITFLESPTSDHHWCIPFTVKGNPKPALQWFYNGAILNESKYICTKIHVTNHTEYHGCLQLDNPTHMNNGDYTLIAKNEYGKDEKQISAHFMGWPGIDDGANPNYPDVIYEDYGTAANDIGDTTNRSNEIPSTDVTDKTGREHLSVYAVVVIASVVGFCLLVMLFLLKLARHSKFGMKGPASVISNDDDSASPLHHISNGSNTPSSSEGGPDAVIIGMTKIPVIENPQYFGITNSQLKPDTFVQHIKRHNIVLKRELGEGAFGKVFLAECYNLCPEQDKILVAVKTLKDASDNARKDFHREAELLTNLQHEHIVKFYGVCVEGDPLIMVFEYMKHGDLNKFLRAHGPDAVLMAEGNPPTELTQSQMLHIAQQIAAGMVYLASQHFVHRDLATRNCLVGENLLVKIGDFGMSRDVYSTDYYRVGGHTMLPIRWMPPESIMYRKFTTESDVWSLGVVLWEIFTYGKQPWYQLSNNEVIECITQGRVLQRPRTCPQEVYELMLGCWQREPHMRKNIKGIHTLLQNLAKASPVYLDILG

For the compound `CN1CCN(Cc2cc(NC(=O)c3ccc4c(c3)CN(c3ccccc3)CC4)cc(C(F)(F)F)c2)CC1` [Compound 6i], the “DDR1 inhibition, result in words” value on DDR1 is “totally abolished DDR1 inhibitory potency”. On TRKB, the Kd was over 1000 nM. Further, on DDR2, the half-inhibitory concentration (IC50) is over 10000 nM.
Consider `CC[C@H]1CN(c2cncnc2)Cc2cc(C(=O)Nc3cc(CN4CCN(C)CC4)cc(C(F)(F)F)c3)ccc21` [Compound 6d], for which, at TRKB, the equilibrium dissociation constant (Kd) was 22 ± 1 nM. This compound also returned a half-maximal inhibitory concentration (IC50) against DDR2 of 546 ± 49 nM.
Take `C[C@@H]1CN(c2cncnc2)Cc2cc(C(=O)Nc3cc(CN4CCN(C)CC4)cc(C(F)(F)F)c3)ccc21` [Compound 6c]: the dissociation constant (Kd) on TRKB worked out at 36 ± 2.5 nM.
As for `CC[C@@H]1CN(c2cncnc2)Cc2cc(C(=O)Nc3cc(CN4CCN(C)CC4)cc(C(F)(F)F)c3)ccc21` [Compound 6e], on TRKB, the equilibrium dissociation constant (Kd) came out at 500 ± 30 nM. Besides, on DDR2, the IC50 is over 10000 nM.
For `CN1CCN(Cc2cc(NC(=O)c3ccc4c(c3)CN(c3cccnc3)CC4)cc(C(F)(F)F)c2)CC1` [Compound 6h], in that order: 94 ± 6 nM and over 4000 nM.
For the compound `C[C@H]1CN(c2cncnc2)Cc2cc(C(=O)Nc3cc(CN4CCN(C)CC4)cc(C(F)(F)F)c3)ccc21` [Compound 6b], at TRKB, the dissociation constant Kd is 5.2 ± 1 nM.
For the compound `CC(C)[C@H]1CN(c2cncnc2)Cc2cc(C(=O)Nc3cc(CN4CCN(C)CC4)cc(C(F)(F)F)c3)ccc21` [Compound 6f], the “DDR1 inhibition, result in words” value at DDR1 is “substantial potency loss”. Also, at TRKB, the Kd was found to be 340 ± 5 nM. On DDR2, this compound came in with a concentration for half-maximal inhibition (IC50) of over 10000 nM.
For `CC(C)[C@@H]1CN(c2cncnc2)Cc2cc(C(=O)Nc3cc(CN4CCN(C)CC4)cc(C(F)(F)F)c3)ccc21` [Compound 6g], in that order: “almost no DDR1 inhibition”, over 1000 nM and over 10000 nM.
For the compound `CN1CCN(Cc2cc(NC(=O)c3ccc4c(c3)CN(c3cncnc3)CC4)cc(C(F)(F)F)c2)CC1` [Compound 6a], the dissociation constant (Kd) on TRKB worked out at 29 ± 5.5 nM. At DDR2, the IC50 was over 7900 nM.

The values are drawn from article PMC5053573, “Structure-Based Design of Tetrahydroisoquinoline-7-carboxamides as Selective Discoidin Domain Receptor 1 (DDR1) Inhibitors” (Journal of Medicinal Chemistry, 2016).
